Measurements as given in US20120003335A1, “CONSTITUTIVE ANDROSTANE RECEPTOR (CAR) AS A THERAPEUTIC TARGET FOR OBESITY AND TYPE TWO DIABETES” (UNIVERSITY OF PITTSBURGH-OF THE COMMONWEALTH SYSTEM OF …, priority 2008, published 2012).

Assays:
[1] = test system: C57BL/6J mice fed with high fat diet (HFD); experiment: Prevention of high fat diet-induced obesity (body weight, MRI body composition); format: in vivo; details: male mice, HFD five weeks, 0.5 mg/kg once a week
Procedure: Eight-week male C57BL/6J mice were fed with high fat diet (HFD) for five weeks and simultaneously treated with the CAR agonist TCPOBOP (0.5 mg/kg, once a week) or vehicle (DMSO). […] The effect of TCPOBOP on the fat mass was so dramatic that the differences were obvious and significant after one week of drug treatment (FIGS. 1A-b and 1A-c). At the end of five-week treatment, the body weight differences between TCPOBOP group and vehicle group were completely accountable by the gain of fat mass in the TCPOBOP group (FIG. 1B).

[2] = test system: C57BL/6J female mice fed with HFD; experiment: Treatment of pre-existing HFD-induced obesity; format: in vivo
Procedure: To determine whether CAR activation is effective in controlling obesity in mice with pre-existing obesity, C57BL/6J female mice were fed with HFD for six weeks, followed by 6 weeks of TCPOBOP (0.5 mg/kg, once a week) treatment when mice remained on HFD.

ob/ob mice [3] = experiment: Obesity in genetically leptin deficient ob/ob mice; format: in vivo
From the text: TCPOBOP was also effective in the genetically leptin deficient and obese ob/ob mice. In this experiment, 7-week old female ob/ob mice were maintained in chow diet and treated with TCPOBOP or vehicle for eight weeks.

[4] = test system: HFD-fed C57BL/6J male mice; experiment: Insulin sensitivity by GTT and ITT, HFD-fed mice; format: in vivo; details: five weeks treatment
From the text: (§1) Since obesity is strongly associated with insulin resistance, a typical characteristic of type two diabetes, whether the CAR agonist can also improve insulin sensitivity was examined. […] The insulin sensitizing effect of TCPOBOP was also evident in ob/ob mice (FIGS. 3C and 3D).

ob/ob mice [5] = experiment: Insulin sensitivity by GTT and ITT, ob/ob mice; format: in vivo
From the text: as §1

HFD-fed C57BL/6j mice = experiment: Fasting serum glucose and lipid profile, HFD-fed mice; format: in vivo
From the text: as §1

ob/ob mice [6] = experiment: Fasting serum glucose and lipid profile, ob/ob mice; format: in vivo
From the text: as §1

[7] = test system: lipogenic genes (Srebp-1c, Acc-1, Fas, Scd-1) and gluconeogenic enzymes (G6p, Pepck); experiment: Lipogenic and gluconeogenic gene expression in tissues of HFD-fed mice; format: in vivo
From the text: To understand the mechanisms by which CAR inhibits obesity and improves insulin sensitivity, gene expression was profiled in several relevant tissues, including the liver, skeletal muscle, white adipose tissue (WAT) and brown adipose tissue (BAT) in HFD-fed C57BL/6J mice treated with TCPOBOP for one week.
Since excessive VLDL production and triglyceride secretion contribute to the pathogenesis of hypertriglyceridemia, obesity and diabetes, VLDL secretion rate after a 5-week TCPOBOP treatment also was evaluated. […] The inhibition of VLDL secretion was consistent with the lower serum triglyceride level (data not shown) and inhibition of hepatic lipogenesis (FIG. 5A) in these animals.

HFD-fed mice [8] = experiment: Hepatic steatosis, adipose tissue size and adipocyte morphology; format: in vivo; details: treated five weeks
HFD-fed mice [9] = experiment: VLDL secretion rate; format: in vivo; details: after 5-week treatment
CAR-/- mice = experiment: Lipogenic and gluconeogenic gene expression in CAR-/- mice; format: in vivo; details: C57BL/6J and SvJ129 mixed background, HFD five week
From the text: The suppression of lipogenic and gluconeogenic gene expression was also seen in TCPOBOP-treated wild type mice of C57BL/6J and SvJ129 mixed background (data not shown).

[10] = test system: BAT genes involved in energy expenditure; experiment: BAT energy expenditure gene expression and oxygen consumption; set-up: species or system mice; details: mouse, in vivo
From the text: BAT plays an important role in regulating energy expenditure. The smaller BAT in TCPOBOP-treated mice prompted an examination of the expression of BAT genes involved in energy expenditure.

[11] = test system: PPARα and its target genes; experiment: Expression of beta-oxidation genes in liver and skeletal muscle; format: in vivo, mice
From the text: (§2) The effect of TCPOBOP on the fatty acid oxidation in the liver and skeletal muscle also was investigated. […] These include the suppression of long-chain acyl-CoA dehydrogenase (Aacdl), medium-chain acyl CoA dehydrogenase (Acadm) and HMG-CoA synthase (HMGCS2).

[12] = test system: gastrocnemius muscle derived from HFD-fed mice; experiment: Mitochondrial β-oxidation rate in gastrocnemius muscle ([14C]-oleate)
From the text: as §2

[13] = test system: adipose triglyceride lipase (ATGL), hormone sensitive lipase (HSL); experiment: Lipase expression in WAT; set-up: species or system mice; details: mouse, in vivo
HFD-fed mice [14] = experiment: Leptin and adiponectin production and food intake; format: in vivo
From the text: Leptin is an adipokine primarily produced in WAT. […] HFD induced leptin mRNA expression as expected (FIG. 8A). […] The decreased production of leptin may have resulted from decreased fat mass, and the inhibition of food intake may have contributed to the anti-obesity effect.

Cyp2b10 = details: 0.5 mg/kg once a week
[15] = HFD-fed C57BL/6J mice, treated one week
[16] = short-term (one week) treatment

Which results are given for `Clc1cnc(Oc2ccc(Oc3ncc(Cl)cc3Cl)cc2)c(Cl)c1` [TCPOBOP, 1,4-bis[2-(3,5 dichloropyridyloxy)] benzene]?
lean mass, TCPOBOP vs vehicle group [1]: not significantly different; gain of body weight ([1]; after two weeks of drug treatment, vs vehicle (DMSO)): significantly inhibited gain of body weight; lean to body weight ratio ([1]; ratio decreased in vehicle-treated mice): remained steady; gain of fat mass (MRI) ([1]; vs vehicle): significantly inhibited the gain of fat mass; fat mass ([2]; HFD six weeks, then 6 weeks 0.5 mg/kg once a week on HFD): inhibition of gain of fat mass; body weight course ([2]; HFD six weeks, then 6 weeks 0.5 mg/kg once a week on HFD, vehicle group continued to gain): stabilized the mouse body weight; body weight vs vehicle group ([2]; after 5 weeks of drug treatment): significantly lower than the vehicle group; gain of fat mass (ob/ob mice [3]; 7-week old female ob/ob mice, chow diet, eight weeks treatment): less gain of fat mass; body weight vs vehicle group (ob/ob mice [3]; end of eight week treatment): significantly lower body weight; fat mass (ob/ob mice [3]; end of eight week treatment): deceased fat mass; lean mass (ob/ob mice [3]; end of eight week treatment): increased lean mass; insulin sensitivity (GTT and ITT) [4]: significantly improved insulin sensitivity; insulin sensitizing effect (GTT and ITT) (ob/ob mice [5]): also evident; Fasting Glucose (HFD-fed C57BL/6j mice): 102.8 ± 17.7 mg/dL; Free Fatty Acid (HFD-fed C57BL/6j mice; fasting serum): 6.8 ± 0.6 µM; Insulin (HFD-fed C57BL/6j mice; fasting serum): 1.57 ± 0.37 ng/mL; Total Cholesterol (HFD-fed C57BL/6j mice; fasting serum): 89.7 ± 5.3 mg/dL; Total Triglyceride (HFD-fed C57BL/6j mice; fasting serum): 132.8 ± 17.7 mg/dL; Free Fatty Acid (ob/ob mice [6]): 21.4 ± 1.54 µM; Total Cholesterol (ob/ob mice [6]): 90.2 ± 9.9 mg/dL; Total Triglyceride (ob/ob mice [6]): 126.3 ± 13.7 mg/dL; Fas and Scd-1 gene expression in skeletal muscle, BAT and WAT [7, 15]: Significant inhibition; expression of Acc-1 in BAT [7, 15]: significantly inhibited; expression of lipogenic genes Srebp-1c, Acc-1, Fas and Scd-1 in the liver [7, 15]: suppressed the expression of lipogenic genes; expression of glucose-6-phosphatase (G6p) and phosphoenolpyruvate carboxykinase (Pepck) ([7]; after 5-week treatment): significantly inhibited; adipocyte morphology (HFD-fed mice [8]): adipocyte hypotrophy; hepatic steatosis (HFD-fed mice [8]): ameliorated hepatic steatosis; sizes of abdomen WAT and BAT (HFD-fed mice [8]): decreased sizes of abdomen WAT and BAT; VLDL secretion rate vs vehicle group (HFD-fed mice [9]): significantly reduced; expression of lipogenic and gluconeogenic genes in liver, skeletal muscle, WAT, BAT (CAR-/- mice): none of the lipogenic and gluconeogenic genes was significantly altered; BAT expression of PGC-1b, mCPT-I, LCAD, D2, UCP-1, UCP-2 and UCP-3 [10]: significantly increased; oxygen consumption [10]: increased oxygen consumption; expression of PPARα and its target genes involved in β-oxidation and ketogenesis, liver and skeletal muscle ([11]; chronic (five weeks) treatment): significantly suppressed; expression of PPARα [11, 16]: modestly suppressed; expression of genes related to β-oxidation [11, 16]: little effect; substrate switch on addition of pyruvate ([12]; pyruvate added to incubation buffer, vehicle mitochondria failed to switch): showed significant switch; accumulation of radiolabeled intermediates in the acid-soluble metabolite (ASM) (incomplete β-oxidation) ([12]; vs vehicle group): much more dramatic reduction; rate of [14C]-oleate oxidation to CO2 (complete β-oxidation) ([12]; vs vehicle group): modest, although significant, decrease; expression of adipose triglyceride lipase (ATGL) in WAT [13]: induced in WAT; expression of hormone sensitive lipase (HSL) in WAT [13]: but not the hormone sensitive lipase (HSL); expression of adiponectin (HFD-fed mice [14]; HFD-fed mice): increased expression of adiponectin; leptin mRNA level vs vehicle-treated counterparts (HFD-fed mice [14]; HFD-fed mice): dramatically lower; leptin production at the protein level (HFD-fed mice [14]; HFD-fed mice): decreased leptin production; food intake (HFD-fed mice [14]; mouse, in vivo): significantly reduced the food intake; Cyp2b10 gene expression in the liver (Cyp2b10): activation of Cyp2b10
